Data reported in PMC5789975, “Computer-aided Discovery of Peptides that Specifically Attack Bacterial Biofilms” (Scientific Reports, 2018).

How the values were obtained:
[1] = tested on: S. aureus (MRSA SAP0017) biofilms; assay: Static microtitre plate antibiofilm screen (crystal violet); type: cell-based, Staphylococcus aureus; conditions: SPOT-synthesized peptides (60–70% purity), ~6.25 μM, TSB with 1% glucose, 24 h 37 °C, crystal violet A595, mean of three biological replicates; Fig. 1b matrix
Procedure: The SPOT-synthesized peptides were evaluated for their antibiofilm activity in vitro as described previously. Briefly, 5 μl of SPOT-peptide stock solution or a corresponding serial dilution was placed in a 96-well polypropylene round bottom plate (Corning Inc. Corning, NY) and 95 μl of a 1/100 dilution of an overnight culture of MRSA SAP0017 in TSB supplemented with 1% glucose was added to each well. The plates were incubated overnight at 37 °C to allow for bacterial growth and biofilm maturation. After 24 hours, the media containing planktonic bacteria was rinsed from each well with distilled water and the remaining biomass was stained with 0.1% crystal violet. The unbound dye was rinsed away and the biofilm bound dye was suspended in 70% ethanol and the absorbance at 595 nm was recorded on a plate reader. Percent biofilm inhibition was calculated by comparison to the amount of crystal violet stain in the untreated controls (defined as 100%) and the sterility control wells (defined as 0%). Results from three separate biological replicates were averaged and outliers were identified using the modified Thompson Tau test and removed from the analysis. The antibiofilm activity of all SPOT-derived peptides was assessed at multiple concentrations (up to five 2-fold dilutions from the stock solution) and the peptide concentration yielding the largest difference in percent inhibition of biofilm growth was used in subsequent analysis.

[2] = tested on: planktonic S. aureus MRSA (SAP0017); assay: MIC determination, broth microdilution; type: cell-based, Staphylococcus aureus; conditions: broth microdilution, ~5 × 10^5 CFU/ml, 37 °C overnight, visual read, mean of three biological replicates
Procedure: The MIC of the synthesized peptides was determined in both Mueller Hinton Broth (MHB) and Tryptic Soy Broth (TSB) supplemented with 1% glucose, using the broth microdilution method[21] with slight modifications. Briefly, 10 μl of a 10× concentrated peptide stock solution, vancomycin antibiotic, or vehicle control (water) was placed in the bottom of a well in a 96-well polypropylene round bottom plate (Corning Inc. Corning, NY). A bacterial suspension of S. aureus MRSA (SAP0017, clinical isolate kindly provided by Dr. Tony Chow, Vancouver General Hospital) was prepared from an overnight culture to a final cell density of ~5 × 10^5 CFU/ml and 90 μl of this was added to each well.

[3] = tested on: MRSA SAP0017 biofilms grown in flow cells; assay: Eradication of pre-formed biofilms in flow cells; type: cell-based, Staphylococcus aureus; conditions: BM2 media, SYTO-9/propidium iodide, confocal microscopy
Procedure: Bacterial biofilms were grown in BM2 media (62 mM potassium phosphate buffer, pH 7, 7 mM (NH4)2SO4, 2 mM MgSO4, 10 μM FeSO4 and 0.4% (wt/vol) glucose) for 48 hours followed by treatment with peptide (2 or 0.125 µM) for an additional 24 hours. The samples were stained with SYTO-9 and propidium iodide fluorescent dyes to image total and dead cells, respectively. Flow-cell images were acquired on an Olympus FluoView FV1000 confocal laser scanning microscope (Olympus Corp. Tokyo, Japan) and were analyzed with the Fiji software package.

[4] = tested on: peripheral blood mononuclear cells (PBMCs); assay: Cytotoxicity, LDH release assay; type: cell-based, human; conditions: peptide concentrations as high as 40 µM
Procedure: The cytotoxicity and immunomodulatory activity of both 1018 and 3002 was assessed as described previously. Briefly, peripheral blood mononuclear cells (PBMCs) were collected from healthy volunteers in accordance with the University of British Columbia ethics guidelines. PBMCs were plated in Costar 96-well flat bottom tissue culture treated plates at a final density of 1 × 10^6 cells/ml in RPMI media supplemented with 10% fetal bovine serum. […] Cytotoxicity was assessed using the Cytotoxicity Detection Kit (Roche Diagnostics, Basel, Switzerland) which measures lactate dehydrogenase activity released from damaged cells. Immune modulation was characterized by measuring the production of MCP-1 chemokine by induced by peptide alone as well as the suppression of interleukin (IL)-1β from PBMCs stimulated with 10 ng/ml Pseudomonas aeruginosa PAO1 lipopolysaccharide. Levels of MCP-1 and IL-1β were quantified by enzyme linked immunosorbent assays (ELISAs) using kits from eBioscience Inc. (San Diego, CA).

MRSA USA300 LAC = assay: Murine cutaneous abscess model; type: in vivo, CD-1 mice; conditions: 14 mg/kg
Procedure: The in vivo activity of the identified antibiofilm peptide 3002 and the parental compound 1018 was evaluated using a recently described murine abscess model of chronic MRSA infections. All animal experiments were performed in accordance with The Canadian Council on Animal Care (CCAC) guidelines and were approved by the University of British Columbia Animal Care Committee. Briefly, the fur on the backs of 6-week old female CD-1 mice (Charles River Laboratories, Wilmington, MA) was removed by shaving and subsequent treatment with depilatory cream. MRSA USA300 LAC was grown to an optical density at 600 nm of 1 in tryptic soy broth (TSB) at which point cells were washed twice with sterile PBS and then suspended in PBS to a final cell density of 5 × 10^7 CFU/50 μL. Mice were infected with 50 μL of bacteria subcutaneously on the right flank of the back and 1 hour later, given saline (for controls) or treated with 14 mg/kg peptide (1018 or 3002) via intra-abscess injection. Mice were monitored daily and their weight as well as abscess lesion sizes (measured using a caliper) were recorded every 24 hrs. Visible dermonecrosis or white lesions (filled with pus) were considered as part of the abscess lesion while swelling/inflammation was disregarded in the abscess size measurements. Three days post-infection, abscesses were excised and homogenized using a Bead Ruptor 4 tissue homogenizer (OMNI International, Kennesaw GA) for 5 minutes and serially plated for viable CFU quantification.

[5] = tested on: biofilms formed by P. aeruginosa, Escherichia coli and MRSA; conditions: combination with various antimicrobial agents; cited from earlier work
Description: For example, when peptide 1018 was used in combination with various antimicrobial agents, it decreased the amount of drug required to treat biofilms formed by P. aeruginosa, Escherichia coli and MRSA (among others) by up to 64-fold[30]. […] It is likely that such synergistic effects would be conserved with the latest pept ...

Substance: VRLIVAVRIWRR-NH2 [compound 1018, synthetic immunomodulatory cationic peptide, 12-residue derivative of bovine bactenecin; parent template, reference compound]
- percent residual biofilm after treatment with peptide [1]: 31%
- MIC, MHB ([2]; Mueller Hinton Broth): 4 µM
- MIC, TSB with 1% Glucose ([2]; Tryptic Soy Broth with 1% glucose): >64 µM
- eradication of 2-day old pre-formed MRSA biofilms ([3]; 0.125 μM peptide for 24 h): virtually identical to untreated controls
- eradication of 2-day old pre-formed MRSA biofilms ([3]; 2 µM peptide for 24 h): effectively eradicated
- cytotoxicity (LDH release) [4]: less than 15%
- reduction of abscess lesion size compared to untreated controls (MRSA USA300 LAC; single intra-abscess injection 1 h after infection, 3 days): 2.4 fold
- effect on bacterial load recovered from the abscesses (MRSA USA300 LAC; single intra-abscess injection, CFU three days post-infection): neither peptide had any effect
- decrease in amount of drug required to treat biofilms in combination with peptide [5]: up to 64 fold
